{"source": "paper PMC9862743", "about": "(Pharmaceuticals, 2022)", "key": {"EGFR": {"molecular_target": "T1, EGFR (Homo sapiens, UniProt P00533)", "T1 construct": "purchased Reaction Biology Corp", "T1 sequence (P00533 25-1210)": "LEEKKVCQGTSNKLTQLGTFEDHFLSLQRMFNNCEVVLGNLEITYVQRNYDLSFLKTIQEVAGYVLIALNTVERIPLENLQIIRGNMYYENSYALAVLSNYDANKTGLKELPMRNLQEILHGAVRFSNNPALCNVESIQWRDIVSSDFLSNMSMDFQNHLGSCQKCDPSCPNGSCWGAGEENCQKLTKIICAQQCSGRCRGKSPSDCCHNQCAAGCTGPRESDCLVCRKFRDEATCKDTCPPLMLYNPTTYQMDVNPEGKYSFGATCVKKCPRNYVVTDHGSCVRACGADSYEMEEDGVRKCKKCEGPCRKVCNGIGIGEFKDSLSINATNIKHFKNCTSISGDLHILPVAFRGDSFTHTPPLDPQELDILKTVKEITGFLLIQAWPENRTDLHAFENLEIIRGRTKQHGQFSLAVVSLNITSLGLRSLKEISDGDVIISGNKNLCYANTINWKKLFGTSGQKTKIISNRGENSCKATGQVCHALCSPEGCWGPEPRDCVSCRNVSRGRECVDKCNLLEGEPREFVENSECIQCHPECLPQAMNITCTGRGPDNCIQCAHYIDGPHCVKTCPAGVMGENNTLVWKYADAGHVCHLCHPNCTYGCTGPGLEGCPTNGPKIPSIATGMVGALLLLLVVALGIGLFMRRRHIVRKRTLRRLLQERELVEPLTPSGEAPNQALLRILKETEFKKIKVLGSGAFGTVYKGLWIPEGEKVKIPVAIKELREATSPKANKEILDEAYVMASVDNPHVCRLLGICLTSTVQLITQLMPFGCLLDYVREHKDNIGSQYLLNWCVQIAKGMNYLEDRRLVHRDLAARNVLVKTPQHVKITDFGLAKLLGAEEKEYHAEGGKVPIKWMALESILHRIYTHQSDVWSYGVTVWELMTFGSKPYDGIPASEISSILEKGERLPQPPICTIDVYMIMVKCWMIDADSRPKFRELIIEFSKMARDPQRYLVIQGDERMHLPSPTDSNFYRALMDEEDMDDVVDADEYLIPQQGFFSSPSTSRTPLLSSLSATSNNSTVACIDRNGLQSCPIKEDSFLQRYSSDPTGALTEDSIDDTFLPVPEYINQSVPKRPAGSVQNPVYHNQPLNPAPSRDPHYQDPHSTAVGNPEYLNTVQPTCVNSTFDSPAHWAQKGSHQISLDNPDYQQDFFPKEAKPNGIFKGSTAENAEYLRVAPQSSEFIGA", "test": "HotSpot in vitro kinase assay, EGFR", "type": "biochemical", "settings": "for inhibition at 10 µM: single dose 10 µM compound, 10 µM ATP"}, "HER2": {"molecular_target": "T2, HER2 (Homo sapiens, UniProt P04626)", "T2 construct": "purchased Reaction Biology Corp", "T2 sequence (P04626 23-1255)": "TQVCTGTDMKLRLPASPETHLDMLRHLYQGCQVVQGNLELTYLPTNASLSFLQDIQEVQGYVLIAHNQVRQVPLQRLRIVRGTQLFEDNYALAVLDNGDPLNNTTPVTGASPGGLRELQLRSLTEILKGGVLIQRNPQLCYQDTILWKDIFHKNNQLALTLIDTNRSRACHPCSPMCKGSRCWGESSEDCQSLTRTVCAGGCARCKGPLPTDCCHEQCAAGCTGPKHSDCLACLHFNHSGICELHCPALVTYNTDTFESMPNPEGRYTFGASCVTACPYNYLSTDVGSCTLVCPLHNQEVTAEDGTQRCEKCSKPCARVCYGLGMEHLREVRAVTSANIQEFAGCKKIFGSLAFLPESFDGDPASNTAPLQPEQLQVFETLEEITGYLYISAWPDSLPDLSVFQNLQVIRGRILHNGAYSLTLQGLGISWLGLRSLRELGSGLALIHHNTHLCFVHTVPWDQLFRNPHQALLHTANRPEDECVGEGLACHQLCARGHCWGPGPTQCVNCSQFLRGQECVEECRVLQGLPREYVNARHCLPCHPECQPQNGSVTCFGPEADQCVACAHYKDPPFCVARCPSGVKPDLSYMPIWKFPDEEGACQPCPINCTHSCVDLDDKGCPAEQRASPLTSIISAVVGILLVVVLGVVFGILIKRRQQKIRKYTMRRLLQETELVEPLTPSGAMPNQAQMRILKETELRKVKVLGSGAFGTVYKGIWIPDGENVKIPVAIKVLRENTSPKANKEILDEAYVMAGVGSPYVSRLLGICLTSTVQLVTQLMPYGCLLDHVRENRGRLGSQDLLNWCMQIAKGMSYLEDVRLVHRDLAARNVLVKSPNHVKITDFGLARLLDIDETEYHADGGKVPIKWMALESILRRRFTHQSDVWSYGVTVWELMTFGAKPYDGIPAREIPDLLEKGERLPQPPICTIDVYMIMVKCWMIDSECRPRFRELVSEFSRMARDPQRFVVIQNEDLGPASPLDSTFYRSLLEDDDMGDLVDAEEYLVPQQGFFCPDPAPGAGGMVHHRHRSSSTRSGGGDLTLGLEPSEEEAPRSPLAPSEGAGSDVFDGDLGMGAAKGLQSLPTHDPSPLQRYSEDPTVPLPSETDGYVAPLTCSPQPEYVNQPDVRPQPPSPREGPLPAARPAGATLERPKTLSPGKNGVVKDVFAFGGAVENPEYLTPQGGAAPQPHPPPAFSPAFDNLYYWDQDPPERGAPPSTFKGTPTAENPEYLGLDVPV", "test": "HotSpot in vitro kinase assay, HER2", "type": "biochemical", "settings": "single dose 10 µM compound, 10 µM ATP"}, "CDK2/cyclin A": {"molecular_target": "T3, CDK2/cyclin A (Homo sapiens, UniProt P24941)", "T3 construct": "purchased Reaction Biology Corp", "test": "Kinase selectivity panel, CDK2/cyclin A", "type": "biochemical", "settings": "single dose 10 µM"}, "c-MET": {"molecular_target": "T4, c-MET (Homo sapiens, UniProt P08581)", "T4 construct": "purchased Reaction Biology Corp", "T4 sequence (P08581 25-1390)": "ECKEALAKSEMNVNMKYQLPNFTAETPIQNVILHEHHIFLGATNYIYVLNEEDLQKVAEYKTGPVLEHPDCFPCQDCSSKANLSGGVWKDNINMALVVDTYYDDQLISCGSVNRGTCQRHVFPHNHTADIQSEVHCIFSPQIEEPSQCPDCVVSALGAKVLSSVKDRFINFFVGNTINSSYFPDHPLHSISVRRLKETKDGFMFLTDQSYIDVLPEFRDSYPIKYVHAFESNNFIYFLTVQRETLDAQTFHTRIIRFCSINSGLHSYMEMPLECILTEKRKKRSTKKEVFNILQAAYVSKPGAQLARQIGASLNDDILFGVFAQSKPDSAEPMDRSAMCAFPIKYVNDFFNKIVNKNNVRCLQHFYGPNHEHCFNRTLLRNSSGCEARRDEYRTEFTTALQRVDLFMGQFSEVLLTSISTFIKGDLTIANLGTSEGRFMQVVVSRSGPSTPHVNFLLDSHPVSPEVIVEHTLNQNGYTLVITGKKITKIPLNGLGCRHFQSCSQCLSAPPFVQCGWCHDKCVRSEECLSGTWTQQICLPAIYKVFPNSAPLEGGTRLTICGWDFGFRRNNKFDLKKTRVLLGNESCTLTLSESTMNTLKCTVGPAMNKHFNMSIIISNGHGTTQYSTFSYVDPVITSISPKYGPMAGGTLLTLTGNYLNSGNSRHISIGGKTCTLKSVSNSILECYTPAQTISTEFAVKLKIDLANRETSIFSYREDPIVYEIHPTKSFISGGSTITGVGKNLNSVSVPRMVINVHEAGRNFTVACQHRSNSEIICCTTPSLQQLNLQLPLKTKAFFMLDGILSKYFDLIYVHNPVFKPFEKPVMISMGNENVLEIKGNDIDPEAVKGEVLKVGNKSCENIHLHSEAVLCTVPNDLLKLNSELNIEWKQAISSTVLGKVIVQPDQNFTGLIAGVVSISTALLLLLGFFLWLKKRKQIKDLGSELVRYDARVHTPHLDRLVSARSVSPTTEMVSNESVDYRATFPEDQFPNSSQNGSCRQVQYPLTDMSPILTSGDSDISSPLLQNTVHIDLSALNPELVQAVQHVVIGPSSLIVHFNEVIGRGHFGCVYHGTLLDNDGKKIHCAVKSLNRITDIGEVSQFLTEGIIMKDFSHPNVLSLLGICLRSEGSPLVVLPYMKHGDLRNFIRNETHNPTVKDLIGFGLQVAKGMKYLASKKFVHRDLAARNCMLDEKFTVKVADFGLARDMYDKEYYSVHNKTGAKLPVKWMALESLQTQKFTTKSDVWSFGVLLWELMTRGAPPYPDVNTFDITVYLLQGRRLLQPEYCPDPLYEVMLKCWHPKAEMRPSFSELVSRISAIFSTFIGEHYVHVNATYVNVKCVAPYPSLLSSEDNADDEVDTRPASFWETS", "test": "Kinase selectivity panel, c-MET", "type": "biochemical", "settings": "single dose 10 µM"}, "FGFR1": {"molecular_target": "T5, FGFR1 (Homo sapiens, UniProt P11362)", "T5 construct": "purchased Reaction Biology Corp", "T5 sequence (P11362 22-822)": "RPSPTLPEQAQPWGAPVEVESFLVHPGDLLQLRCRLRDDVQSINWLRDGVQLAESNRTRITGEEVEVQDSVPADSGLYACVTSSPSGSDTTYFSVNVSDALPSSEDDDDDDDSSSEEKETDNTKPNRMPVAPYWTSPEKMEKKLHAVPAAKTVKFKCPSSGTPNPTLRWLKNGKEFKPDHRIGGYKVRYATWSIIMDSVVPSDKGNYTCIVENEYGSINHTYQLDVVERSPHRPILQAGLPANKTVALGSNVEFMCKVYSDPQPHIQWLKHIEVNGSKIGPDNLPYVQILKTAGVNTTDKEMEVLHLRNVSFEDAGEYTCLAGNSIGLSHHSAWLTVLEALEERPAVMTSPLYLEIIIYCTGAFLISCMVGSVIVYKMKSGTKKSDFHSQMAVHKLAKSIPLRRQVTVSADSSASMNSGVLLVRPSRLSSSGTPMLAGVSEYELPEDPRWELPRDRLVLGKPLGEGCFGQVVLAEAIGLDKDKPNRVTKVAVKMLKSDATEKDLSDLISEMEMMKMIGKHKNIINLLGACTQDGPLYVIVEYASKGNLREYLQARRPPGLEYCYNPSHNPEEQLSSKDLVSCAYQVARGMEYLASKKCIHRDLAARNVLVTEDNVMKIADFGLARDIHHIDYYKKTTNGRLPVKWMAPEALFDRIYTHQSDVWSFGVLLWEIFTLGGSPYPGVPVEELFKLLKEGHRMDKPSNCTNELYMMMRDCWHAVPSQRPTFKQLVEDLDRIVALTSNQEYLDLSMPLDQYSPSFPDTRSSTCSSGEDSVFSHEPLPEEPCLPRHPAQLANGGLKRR", "test": "Kinase selectivity panel, FGFR1", "type": "biochemical", "settings": "single dose 10 µM"}, "KDR/VEGFR2": {"molecular_target": "T6, KDR/VEGFR2 (Homo sapiens, UniProt P35968)", "T6 construct": "purchased Reaction Biology Corp", "test": "Kinase selectivity panel, KDR/VEGFR2", "type": "biochemical", "settings": "single dose 10 µM"}, "P38a/MAPK14": {"molecular_target": "T7, P38a/MAPK14 (Homo sapiens, UniProt Q16539)", "T7 construct": "purchased Reaction Biology Corp", "T7 sequence (Q16539 whole entry)": "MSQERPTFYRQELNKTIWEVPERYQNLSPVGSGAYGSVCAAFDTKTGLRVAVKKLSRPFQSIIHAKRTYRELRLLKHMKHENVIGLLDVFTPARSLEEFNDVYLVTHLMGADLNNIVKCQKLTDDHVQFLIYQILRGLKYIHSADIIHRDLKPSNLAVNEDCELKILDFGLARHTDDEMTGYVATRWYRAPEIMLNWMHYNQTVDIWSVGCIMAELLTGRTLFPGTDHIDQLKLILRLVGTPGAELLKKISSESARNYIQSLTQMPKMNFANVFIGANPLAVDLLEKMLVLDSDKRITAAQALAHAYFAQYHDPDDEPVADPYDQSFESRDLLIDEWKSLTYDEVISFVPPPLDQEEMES", "test": "Kinase selectivity panel, P38a/MAPK14", "type": "biochemical", "settings": "single dose 10 µM"}}, "note": "“Also recorded” adds a separate entry of the source."}
{"smiles": "COc1cc2ncnc(Nc3ccc(C#N)cc3)c2cc1OCCCn1ccnc1[N+](=O)[O-]", "note": "[Compound 6e, 4-((7-Methoxy-6-(3-(2-nitro-1H-imidazol-1-yl)propoxy)quinazolin-4-yl)amino)benzonitrile]", "values": [{"measurement": "inhibition at 10 µM", "setting": "EGFR", "value": 67.3, "unit": "%"}, {"measurement": "inhibition at 10 µM", "setting": "HER2", "value": 8.78, "unit": "%"}, {"measurement": "melting point", "value": "245 to 246", "unit": "°C"}]}
{"smiles": "COc1cc2ncnc(Nc3ccc(OCc4ccccn4)c(Cl)c3)c2cc1OCCCn1ccnc1[N+](=O)[O-]", "note": "[Compound 6i, N-(3-Chloro-4-(pyridin-2-ylmethoxy)phenyl)-7-methoxy-6-(3-(2-nitro-1H-imidazol-1-yl)propoxy)quinazolin-4-amine]", "values": [{"measurement": "inhibition at 10 µM", "setting": "EGFR", "value": 97.7, "unit": "%"}, {"measurement": "inhibition at 10 µM", "setting": "HER2", "value": 87.2, "unit": "%"}, {"measurement": "melting point", "value": "184 to 185", "unit": "°C"}]}
{"smiles": "COc1cc2ncnc(Nc3ccc(C#N)cc3)c2cc1OCCCCCCn1ccnc1[N+](=O)[O-]", "note": "[Compound 6h, 4-((7-Methoxy-6-((6-(2-nitro-1H-imidazol-1-yl)hexyl)oxy)quinazolin-4-yl)amino)benzonitrile]", "values": [{"measurement": "inhibition at 10 µM", "setting": "EGFR", "value": 94.7, "unit": "%"}, {"measurement": "inhibition at 10 µM", "setting": "HER2", "value": 47.3, "unit": "%"}, {"measurement": "melting point", "value": "191 to 192", "unit": "°C"}]}
{"smiles": "COc1cc2ncnc(Nc3ccc4ncccc4c3)c2cc1OCCCCn1ccnc1[N+](=O)[O-]", "note": "[Compound 6b, 7-Methoxy-6-(4-(2-nitro-1H-imidazol-1-yl)butoxy)-N-(quinolin-6-yl)quinazolin-4-amine]", "values": [{"measurement": "inhibition at 10 µM", "setting": "EGFR", "value": 99.3, "unit": "%"}, {"measurement": "inhibition at 10 µM", "setting": "HER2", "value": 78, "unit": "%"}, {"measurement": "melting point", "value": "201 to 202", "unit": "°C"}]}
{"smiles": "COc1cc2ncnc(Nc3ccc(OCc4ccccn4)c(Cl)c3)c2cc1OCCCCCCn1ccnc1[N+](=O)[O-]", "note": "[Compound 6l, N-(3-Chloro-4-(pyridin-2-ylmethoxy)phenyl)-7-methoxy-6-((6-(2-nitro-1H-imidazol-1-yl)hexyl)oxy)quinazolin-4-amine]", "values": [{"measurement": "inhibition at 10 µM", "setting": "EGFR", "value": 98.6, "unit": "%"}, {"measurement": "inhibition at 10 µM", "setting": "HER2", "value": 89, "unit": "%"}, {"measurement": "melting point", "value": "191 to 192", "unit": "°C"}]}
{"smiles": "COc1cc2ncnc(Nc3ccc(OCc4ccccn4)c(Cl)c3)c2cc1OCCCCn1ccnc1[N+](=O)[O-]", "note": "[Compound 6j, N-(3-Chloro-4-(pyridin-2-ylmethoxy)phenyl)-7-methoxy-6-(4-(2-nitro-1H-imidazol-1-yl)butoxy)quinazolin-4-amine]", "values": [{"measurement": "IC50", "setting": "EGFR; 10-dose assay, 3-fold serial dilution starting at 10 µM", "value": 1.8, "unit": "nM"}, {"measurement": "fold more potent than lapatinib over EGFR", "setting": "EGFR; ratio of EGFR IC50 values", "value": 6, "unit": "fold"}, {"measurement": "fold more potent than staurosporine over EGFR", "setting": "EGFR; ratio of EGFR IC50 values", "value": 50, "unit": "fold"}, {"measurement": "inhibition at 10 µM", "setting": "EGFR", "value": 99, "unit": "%"}, {"measurement": "inhibition at 10 µM", "setting": "HER2", "value": 96.7, "unit": "%"}, {"measurement": "% Kinase Inhibition at 10 µM CDK2/cyclin A", "setting": "CDK2/cyclin A", "value": "almost no inhibitory activity; also recorded: poor to weak inhibitory activity"}, {"measurement": "inhibition at 10 µM", "setting": "CDK2/cyclin A", "value": -0.83, "unit": "%"}, {"measurement": "% Kinase Inhibition at 10 µM c-MET", "setting": "c-MET", "value": "almost no inhibitory activity; also recorded: poor to weak inhibitory activity"}, {"measurement": "inhibition at 10 µM", "setting": "c-MET", "value": 19.3, "unit": "%"}, {"measurement": "% Kinase Inhibition at 10 µM FGFR1", "setting": "FGFR1", "value": "almost no inhibitory activity; also recorded: poor to weak inhibitory activity"}, {"measurement": "inhibition at 10 µM", "setting": "FGFR1", "value": 13.9, "unit": "%"}, {"measurement": "% Kinase Inhibition at 10 µM KDR/VEGFR2", "setting": "KDR/VEGFR2", "value": "almost no inhibitory activity; also recorded: poor to weak inhibitory activity"}, {"measurement": "inhibition at 10 µM", "setting": "KDR/VEGFR2", "value": 10.3, "unit": "%"}, {"measurement": "% Kinase Inhibition at 10 µM P38a/MAPK14", "setting": "P38a/MAPK14", "value": "almost no inhibitory activity; also recorded: poor to weak inhibitory activity"}, {"measurement": "inhibition at 10 µM", "setting": "P38a/MAPK14", "value": -33.3, "unit": "%"}]}
{"smiles": "COc1cc2ncnc(Nc3ccc4ncccc4c3)c2cc1OCCCCCCn1ccnc1[N+](=O)[O-]", "note": "[Compound 6d, 7-Methoxy-6-((6-(2-nitro-1H-imidazol-1-yl)hexyl)oxy)-N-(quinolin-6-yl)quinazolin-4-amine]", "values": [{"measurement": "inhibition at 10 µM", "setting": "EGFR", "value": 99.1, "unit": "%"}, {"measurement": "inhibition at 10 µM", "setting": "HER2", "value": 79.7, "unit": "%"}, {"measurement": "melting point", "value": "176 to 177", "unit": "°C"}]}
{"smiles": "COc1cc2ncnc(Nc3ccc(OCc4ccccn4)c(Cl)c3)c2cc1OCCCCCn1ccnc1[N+](=O)[O-]", "note": "[Compound 6k, N-(3-Chloro-4-(pyridin-2-ylmethoxy)phenyl)-7-methoxy-6-((5-(2-nitro-1H-imidazol-1-yl)pentyl)oxy)quinazolin-4-amine]", "values": [{"measurement": "inhibition at 10 µM", "setting": "EGFR", "value": 98.6, "unit": "%"}, {"measurement": "inhibition at 10 µM", "setting": "HER2", "value": 91.2, "unit": "%"}, {"measurement": "melting point", "value": "158 to 159", "unit": "°C"}]}
{"smiles": "COc1cc2ncnc(Nc3ccc4ncccc4c3)c2cc1OCCCCCn1ccnc1[N+](=O)[O-]", "note": "[Compound 6c, 7-Methoxy-6-((5-(2-nitro-1H-imidazol-1-yl)pentyl)oxy)-N-(quinolin-6-yl)quinazolin-4-amine]", "values": [{"measurement": "inhibition at 10 µM", "setting": "EGFR", "value": 99.3, "unit": "%"}, {"measurement": "inhibition at 10 µM", "setting": "HER2", "value": 90, "unit": "%"}, {"measurement": "melting point", "value": "194 to 195", "unit": "°C"}]}
{"smiles": "COc1cc2ncnc(Nc3ccc(C#N)cc3)c2cc1OCCCCCn1ccnc1[N+](=O)[O-]", "note": "[Compound 6g, 4-((7-Methoxy-6-((5-(2-nitro-1H-imidazol-1-yl)pentyl)oxy)quinazolin-4-yl)amino)benzonitrile]", "values": [{"measurement": "inhibition at 10 µM", "setting": "EGFR", "value": 91.8, "unit": "%"}, {"measurement": "inhibition at 10 µM", "setting": "HER2", "value": 43.1, "unit": "%"}, {"measurement": "melting point", "value": "196 to 197", "unit": "°C"}]}
{"smiles": "COc1cc2ncnc(Nc3ccc(C#N)cc3)c2cc1OCCCCn1ccnc1[N+](=O)[O-]", "note": "[Compound 6f, 4-((7-Methoxy-6-(4-(2-nitro-1H-imidazol-1-yl)butoxy)quinazolin-4-yl)amino)benzonitrile]", "values": [{"measurement": "inhibition at 10 µM", "setting": "EGFR", "value": 76.5, "unit": "%"}, {"measurement": "inhibition at 10 µM", "setting": "HER2", "value": 11.7, "unit": "%"}, {"measurement": "melting point", "value": "200 to 201", "unit": "°C"}]}
{"smiles": "COc1cc2ncnc(Nc3ccc4ncccc4c3)c2cc1OCCCn1ccnc1[N+](=O)[O-]", "note": "[Compound 6a, 7-Methoxy-6-(3-(2-nitro-1H-imidazol-1-yl)propoxy)-N-(quinolin-6-yl)quinazolin-4-amine]", "values": [{"measurement": "inhibition at 10 µM", "setting": "EGFR", "value": 98.8, "unit": "%"}, {"measurement": "inhibition at 10 µM", "setting": "HER2", "value": 74.7, "unit": "%"}, {"measurement": "melting point", "value": "249 to 250", "unit": "°C"}]}
